Read-outs that look alike come from different tables or passages of the source.
Tests used:
rabbits [1] = settings: literature values; cited from earlier work
[2] = test system: human B-lymphoma tumor model (RL cells) in CB17-SCID mice; assay: Tumor rejection assay, therapeutic setting, human B-lymphoma RL cells engrafted in CB17-SCID mice; type: in vivo, mouse; settings: for growth of established RL tumor cells: once a week for 3 weeks, LPS 0.5 mg/kg i.v., GLA 0.5 mg/kg, rituximab 30 mg/kg i.p., vs non-treated mice
Experimental: The therapeutic efficacy of native (LPS B2 0.0 and LPS W1 0.0) and modified (LPS B2 0.1 and LPS B2 1.1) LPS, alone or in combination with rituximab, was analyzed in vivo against a human B-lymphoma tumor model (RL cells) using tumor rejection assays with a therapeutic setting in mice.
Cohort of CB17-SCID mice were engrafted subcutaneously in the abdominal right flank with 5×10^6 human B-lymphoma cells (RL cells). When the tumor volume had reached 100 mm^3 (at day 20), mice were randomized (n=6 mice/group), and the first treatment was administered.
(§1) Mice were treated once a week for 3 weeks (at days 20, 27 and 34) with LPS B2 0.0, LPS B2 0.1, LPS B2 1.1 or LPS W1 0.0, used alone or in combination with rituximab (Genentech), an anti-human CD20 mAb.
(§2) Groups of mice treated with GLA (Merck/Immune Design Corp.) administered either intravenously or intraperitoneally at 0.5 mg/kg, alone or in combination with rituximab, were included for comparison.
(§3) LPS B2 0.0, LPS B2 0.1, LPS B2 1.1 or LPS W1 0.0 were administered intravenously at a dose of 0.5 mg/kg. Rituximab was administered intraperitoneally at a dose of 30 mg/kg.
Tumor-bearing mice injected with PBS (control) or rituximab alone were used as controls.
The tumor volume was measured twice a week (length x width) with a caliper. The tumor volume was determined using the formula: […]

[3] = test system: Osa tumor cells in Sprague-Dawley (SD) rats; assay: Tumor rejection assay, orthotopic rat model of osteosarcoma (Osa); type: in vivo
Experimental: The therapeutic efficacy of the modified LPS B2 1.3 was analyzed in vivo against an orthotopic rat model of osteosarcoma (Osa) using tumor rejection assays with a therapeutic setting.
Sprague-Dawley (SD) rats were engrafted with Osa tumor cells in a paratibial position (left posterior tibia) after a periosteal abrasion. When tumors reached an average tumor volume of 150 mm^3, rats (n=3 to 8/group) were randomized into LPS B2 1.3, Doxorubicin (Doxo), or PBS (Control) groups.
LPS B2 1.3 was administered intravenously into the tail vein, twice a week for 2 weeks at 0.25 mg/kg.
Doxorubicin was administered intraperitoneally twice a week for 2 weeks at 1 mg/kg.
Tumor growth and survival were monitored twice a week. Tumor volumes V were assessed according to the following formula: […]
with L the longest and C the shortest tumor diameter.

[4] = Dynamic Light Scattering (DLS) aggregate size analysis in water and PBS suspensions; type: physicochemical; settings: for average particle size: 0.2 mg/mL, DLS at 25° C., average of triplicate
Experimental: Determination of aggregates sizes of LPS B2 0.0, LPS B2 0.1, LPS B2 1.1 and of synthetic GLA (PHAD®, from Avanti® Polar Lipids, Inc.) in aqueous and PBS suspensions was determined by Dynamic Light Scattering (DLS) using the Malvern Instruments Zetasizer Nano S90 with a scattering angle Θ=90°, incident laser wavelength λ=633 nm and temperature at 25° C.
Samples for measurements were prepared as follows: 200 μg of dry samples in 4 mL glass vials were suspended in 1 mL of water or PBS. LONZA LAL Reagent water and Gibco PBS pH 7.4 (without CaCl2 or MgCl2) were used. The solvents were added progressively (250 μL plus 250 μL plus 500 μL). Three homogenization cycles were applied after each addition of a solvent, consisting in a 10-second sonication in a Fisher Scientific FB 15050 ultrasonic bath and 5 seconds vigorous vortex agitation.
800 μL of each suspension were transferred to a disposable Eppendorf polystyrene semi-micro cuvette and DLS measurements were performed three times.
LPS SM1 V1 was diluted in PBS pH 7.5 at 50 nmol/mL, and filtered through a 200-nm filter to remove large debris and aggregates. No nucleic acid contaminants and 2-4 μg/mL of protein contaminants were measured in the sample.

CB17-SCID mice = assay: Tolerance of intravenous injection in tumor-bearing CB17-SCID mice; type: in vivo, mouse; settings: 0.5 mg/kg intravenously
Experimental: as §1, §2, §3

rabbits [5] = assay: Rabbit Pyrogen Test (RPT), Ph. Eur. 5.1.10; type: in vivo; settings: intravenous, sum of temperature rises of 3 rabbits not above 1.15° C.
Experimental: Standardized Rabbit Pyrogen Test (RPT) were conducted according to European Pharmacopeia (Ph. Eur. 5.1.10). Product tested includes the naturally-occurring LPS B2 0.0 and LPS W1 0.0 and modified LPS B2 0.1, LPS B2 1.1 and LPS B2 1.2, as well as a non-GMP equivalent of the GLA from Merck (Avanti Polar Lipids).
Briefly, groups of three rabbits, weighing 2.5 to 3 kg received one intravenous injection of the tested product in 1 mL/kg of body weight.
For each candidate, several dose ranges were tested from 0.1 to 1000 ng/kg. For each animal, the baseline rectal temperature was recorded. After 30 minutes, the rabbits were inoculated in the ear vein. Temperatures were recorded every 6.5 minutes for 3 hours. The rising temperature of the rabbit body temperature is that the highest body temperature measure within the 3 hours, minus the normal body temperature.
Several doses of each candidates were tested to define their MNPD corresponding to the highest dose of a given product that can be administered in rabbits without inducing febrile reaction.
The pyrogenic activity of modified LPS B2 1.2 and LPS B2 1.3 was evaluated in vivo using the rabbit pyrogen test (RPT), as described in section 5.1.10 of the European Pharmacopeia. Both LPS were administered at the same dose of 450 ng/kg. Two experiments were performed for each modified LPS, with 3 rabbits/experiment (A1, A2 and A3).

human PBMC (CryoBlood) = settings: literature / vendor values; cited from earlier work

CCCCCCCCCCC[C@H](CC(=O)N[C@H]1[C@H](OC[C@H](NC(=O)C[C@@H](CCCCCCCCCCC)OCCCCCCCCCC)C(=O)O)O[C@H](CO)[C@@H](OP(=O)(O)O)[C@@H]1OC(=O)C[C@@H](CCCCCCCCCCC)OCCCCCCCCCC)OCCCCCCCCCC [GSK1795-091]
MNPD (maximum non-pyrogenic dose) (rabbits [1]): 0.0025 µg/kg

rituximab: an anti-CD20 monoclonal antibody (Genentech)
complete tumor regression ([2]; single agent, D54 post-tumor challenge): 17% | growth of established RL tumor cells ([2]; single agent): significantly impair the growth

COc1cccc2c1C(=O)c1c(O)c3c(c(O)c1C2=O)C[C@@](O)(C(=O)CO)C[C@@H]3O[C@H]1C[C@H](N)[C@H](O)[C@H](C)O1 [doxorubicin]
growth of established Osa tumor cells ([3]; LPS B2 1.3 0.25 mg/kg i.v., doxorubicin 1 mg/kg i.p., twice a week for 2 weeks, vs PBS (and doxorubicin)): No significant difference in tumor growth | animals alive (survival) ([3]; day 31): 40% | complete tumor regressions (complete responses) ([3]; day 31): no tumor regressions

CCCCCCCCCCCCCC(=O)O[C@H](CCCCCCCCCCC)CC(=O)O[C@@H]1[C@@H](NC(=O)C[C@H](CCCCCCCCCCC)OC(=O)CCCCCCCCCCCCC)[C@H](OC[C@H]2O[C@H](O)[C@H](NC(=O)C[C@H](O)CCCCCCCCCCC)[C@@H](OC(=O)C[C@H](O)CCCCCCCCCCC)[C@@H]2O)O[C@H](CO)[C@H]1OP(=O)(O)O [GLA, glucopyranosyl lipid A]
average particle size ([4]; in PBS): about 529 nm | DLS profile ([4]; in water): monodisperse | size of nano-particles / aggregates ([4]; in water or PBS): > 500 nm | solubility / dispersibility ([4]; in water or PBS, without dispersing reagents or special treatment): precipitates | appearance of the final 0.2 mg/mL suspensions ([4]; in water or in PBS): slightly opaque but homogeneous | average particle size ([4]; in water): about 544 nm | altered aspect and behavior (toxicity) after intravenous administration (CB17-SCID mice): had to be euthanized | complete tumor regression ([2]; GLA 0.5 mg/kg injected intraperitoneally in combination with rituximab): 50% | growth of established RL tumor cells ([2]; single agent): did not show any impairment | MNPD (maximum non-pyrogenic dose) (rabbits [5]): 0.034 µg/kg | MAT (pyrogenicity as described in the literature) (human PBMC (CryoBlood)): 15700^2 EEU/μg

— patent US20230173064A1, “DETOXIFIED LIPOPOLYSACCHARIDES (LPS), NATURALLY NON-TOXIC LPS, AND USES THEREOF” (priority 2020, published 2023)
